Experimental data taken from patent publication US20040023994A1 (priority 2002, published 2004).
Marks after values point to notes of the source that are not given here.

Key:
A-498 cells = assay: MTT cytotoxicity assay; format: cell-based, human; settings: Homo sapiens, A498; A-498, 72 h incubation, MTT
Method: (§1) Preliminary studies examining the in vitro cytotoxicity of cis-AVTP and trans-AVTG as compared to the parent drugs, were carried out using the 3-[4,5-dimethylthiazol-2-yl]-2,5-diphenyl tetrazolium bromide (MTT) cytotoxicity assay.

ACHN cells = assay: MTT cytotoxicity assay; format: cell-based, human; settings: Homo sapiens, 72 h incubation, MTT
Method: as §1

[1] = system: all the cell lines included in the screen; assay: cells
Method: cis-AVTP and trans-AVTG were tested in National Cancer Institute's (NCI) 60 cell lines derived from leukemia, melanoma, lung, kidney cancers. Most chemotherapeutic agents currently nd 6-TG, have been tested in this screen and a database he National Institutes of Health. The NCI assigned s-AVTP, and number NSC-722289 to trans-AVTG. tocol used for the cytotoxicity assessment in the NCI e from the National Institutes of Health. Briefly, tumor ma, lung, colon, brain, ovary, breast, prostate, and um containing 5% fetal bovine serum and 2 mM L-glutamine re plated in a 100 μL volume into 96 well microtiter 37° C. in humidified atmosphere supplemented with 5% ach cell line were fixed with trichloroacetic acid for f drug addition (Tz). The drugs, as 400-fold concentrated uted to twice the final maximum test concentration with entamicin. Additional four 10-fold dilutions were made us control. Aliquots (100 μl) of the drug solutions were 100 μl of medium, resulting in the required final drug the plates were incubated at 37° C. in humidified for additional 48 h. The assay was terminated by the w/v) trichloroacetic acid for adherent and suspension minutes at 4° C. The supernatant was discarded, the and air dried. A 100 μl aliquot of 0.4% (w/v) sulforhodamine B (SRB) solution in 1% acetic acid was added to each well, and the plates incubated for 10 minutes at room temperature. After staining, unbound dye was removed by washing five times with 1% acetic acid and the plates air dried. Bound stain was solubilized with 10 mM trizma base, and the absorbance read on a plate reader at a wavelength of 515 nm.
By using time zero (Tz), control growth (C), and test growth in the presence of drug at the five concentration levels (Ti), the percentage growth was calculated at each of the drug concentration levels. Percentage growth inhibition was calculated as:
[(Ti−Tz)/(C−Tz)]×100 for concentrations for which Ti>/=Tz
[(Ti−Tz)/Tz]×100 for concentrations for which Ti<Tz.
Three dose response parameters were calculated for each experimental agent. […] The TGI, the drug concentration resulting in total growth inhibition was calculated from Ti=Tz. The LC50 (the concentration of drug resulting in a 50% reduction in the measured protein at the end of the drug treatment as compared to that at the beginning) indicating a net loss of cells following treatment was calculated from [(Ti−Tz)/Tz]×100=−50. Values were calculated for each of these three parameters if the level of activity is reached; however, if the effect was not reached or was exceeded, the value for that parameter is expressed as greater or less than the maximum or minimum concentration tested.

MDA-MB-435 = settings: MDA-MB-435, Breast, NCI database, cited from earlier work
Breast cell lines [2] = system: Breast cell lines
Prostate cell lines [3] = system: Prostate cell lines
Colon cell lines [4] = system: Colon cell lines
Renal cell lines [5] = system: Renal cell lines
Melanoma cell lines [6] = system: Melanoma cell lines
NSCL cell lines [7] = system: NSCL cell lines
CNS cell lines [8] = system: CNS cell lines
Leukemia cell lines [9] = settings: Leukemia
DU-145 = settings: DU-145, Prostate, NCI database, cited from earlier work
SN12C = settings: Renal, NCI database, cited from earlier work
Breast cell lines [10] = assay: cells
Prostate cell lines [11] = assay: cells
Colon cell lines [12] = assay: cells
Renal cell lines [13] = assay: cells
Melanoma cell lines [14] = assay: cells
NSCL cell lines [15] = assay: cells
CNS cell lines [16] = assay: cells; settings: Homo sapiens
Leukemia cell lines [17] = assay: cells
Ovarian cell lines = assay: NCI anticancer screen, by tissue type
[18] = read-out: LC50 (the source's name)

Nc1nc2nc[nH]c2c(=S)[nH]1 [6-TG, 6-thioguanine]
IC50 (A-498 cells): 6900 ± 4100 nM | IC50 (ACHN cells): 2500 ± 800 nM | median TGI ([1]; all cell lines of the NCI screen): 41300 nM | GI50 ([1]; read-out: median GI50): 1040 nM | CC50 ([1]; read-out: median LC50): > 100000 nM | GI50 (MDA-MB-435): 840 nM | TGI (MDA-MB-435): 31900 nM | CC50 (MDA-MB-435; [18]): > 100000 nM | median TGI (Breast cell lines [2]): 67.8^# μM | median TGI (Prostate cell lines [3]): >100000 nM | median TGI (Colon cell lines [4]): 41200 nM | median TGI (Renal cell lines [5]): 89.2^# μM | median TGI (Melanoma cell lines [6]): 15300 nM | median TGI (NSCL cell lines [7]): 24000 nM | median TGI (CNS cell lines [8]): >100000 nM | median TGI (Leukemia cell lines [9]): 19400 nM | GI50 (DU-145): 780 nM | TGI (DU-145): >100000 nM | CC50 (DU-145; [18]): > 100000 nM | CC50 (SN12C; [18]): > 100000 nM | GI50 (SN12C): 1250 nM | TGI (SN12C): >100000 nM | GI50 (Breast cell lines [10]; read-out: median GI50): 1480 nM | CC50 (Breast cell lines [10]; read-out: median LC50): > 100000 nM | GI50 (Prostate cell lines [11]; read-out: median GI50): 1270 nM | CC50 (Prostate cell lines [11]; read-out: median LC50): > 100000 nM | GI50 (Colon cell lines [12]; read-out: median GI50): 1320 nM | CC50 (Colon cell lines [12]; read-out: median LC50): > 100000 nM | GI50 (Renal cell lines [13]; read-out: median GI50): 1140 nM | CC50 (Renal cell lines [13]; read-out: median LC50): > 100000 nM | GI50 (Melanoma cell lines [14]; read-out: median GI50): 1130 nM | CC50 (Melanoma cell lines [14]; read-out: median LC50): > 100000 nM | GI50 (NSCL cell lines [15]; read-out: median GI50): 910 nM | CC50 (NSCL cell lines [15]; read-out: median LC50): > 100000 nM | GI50 (CNS cell lines [16]; read-out: median GI50): 1280 nM | CC50 (CNS cell lines [16]; read-out: median LC50): > 100000 nM | GI50 (Leukemia cell lines [17]; read-out: median GI50): 330 nM | CC50 (Leukemia cell lines [17]; read-out: median LC50): > 100000 nM | median TGI (Ovarian cell lines; Ovarian): 53800 nM | GI50 (Ovarian cell lines; read-out: median GI50): 700 nM | CC50 (Ovarian cell lines; read-out: median LC50): > 100000 nM
